According to ChEMBL document CHEMBL5390201, “The Natural Alkaloid (-)-N-Hydroxyapiosporamide Suppresses Colorectal Tumor Progression as an NF-κB Pathway Inhibitor by Targeting the TAK1-TRAF6 Complex” (J Nat Prod, 2023):
Active and inactive are the calls of the source. The calls are words filed in the database; no cut-off is given here.

Tests used:
[1] = Plasma clearance in Sprague-Dawley rat at 10 mg/kg, ip measured for 24 hrs by HPLC-MS/MS analysis; type: ADME, organism-based
HT-29 [2] = assay: Induction of autophagic flux in human HT-29 cells assessed as increase in LC3 protein expression preincubated with chloroquine for 1 hr followed by compound addition and measured after 24 hrs by Western blot analysis; type: functional, cell-based
HT-29 [3] = assay: Antitumor activity against human HT-29 cells xenografted in athymic nude BALB/c mouse assessed as induction of autophagy by measuring reduction in p62 expression in tumor at 15 mg/kg, ip administered every other day and measured after 14 days by immunohistochemistry analysis; type: functional, organism-based; details: time 14.0 day
HT-29 [4] = assay: Induction of apoptosis in human HT-29 cells assessed as early apoptotic cells at 1 uM incubated for 24 hrs by Annexin V-FITC/PI staining based flow cytometric analysis (reference value: 5.29 %); type: functional
HCT-116 [5] = assay: Induction of apoptosis in human HCT-116 cells assessed as early apoptotic cells at 1 uM incubated for 24 hrs by Annexin V-FITC/PI staining based flow cytometric analysis (reference value: 7.22 %); type: functional
[6] = Toxicity in athymic nude BALB/c mouse xenografted with human HCT-116 cells assessed as pathological changes in liver at 5 to 15 mg/kg, ip administered every other day and measured after 14 days by hematoxylin and eosin staining-based microscopic analysis; type: organism-based; details: in vivo, 336 h, dose 5-15 mg/kg, time 14 day
[7] = Plasma clearance in Sprague-Dawley rat at 10 mg/kg, iv measured for 24 hrs by HPLC-MS/MS analysis; type: ADME, organism-based
HT-29 [8] = assay: Induction of cell cycle arrest in human HT-29 cells assessed as accumulation of cells at G0/G1 phase at 5 uM by RNase/PI staining based flow cytometry analysis (reference value: 50.73 %); type: functional
[9] = Toxicity in athymic nude BALB/c mouse xenografted with human HCT-116 cells assessed as pathological changes in spleen at 5 to 15 mg/kg, ip administered every other day and measured after 14 days by hematoxylin and eosin staining-based microscopic analysis; type: organism-based; details: in vivo, 336 h, dose 5-15 mg/kg, time 14 day
HCT-116 [10] = assay: Induction of autophagic flux in human HCT-116 cells assessed as increase in LC3I to LC3II conversion preincubated with 3-methyladenine for 1 hr followed by compound addition and measured after 24 hrs by Western blot analysis; type: functional, cell-based
[11] = molecular target: T1, Nuclear factor NF-kappa-B complex (Homo sapiens) (UniProt Q00653+P19838+Q04206); assay: Inhibition of TNF-alpha induced NFkappaB activation in human HT-29 cells assessed as inhibition of p65 nuclear translocation at 10 uM pretreated for 6 hrs followed by TNFalpha stimulation for 15 mins by immunohistochemical analysis; type: cell-based; details: time 6.25 hrs
T1 sequence (P19838 whole entry, looked up): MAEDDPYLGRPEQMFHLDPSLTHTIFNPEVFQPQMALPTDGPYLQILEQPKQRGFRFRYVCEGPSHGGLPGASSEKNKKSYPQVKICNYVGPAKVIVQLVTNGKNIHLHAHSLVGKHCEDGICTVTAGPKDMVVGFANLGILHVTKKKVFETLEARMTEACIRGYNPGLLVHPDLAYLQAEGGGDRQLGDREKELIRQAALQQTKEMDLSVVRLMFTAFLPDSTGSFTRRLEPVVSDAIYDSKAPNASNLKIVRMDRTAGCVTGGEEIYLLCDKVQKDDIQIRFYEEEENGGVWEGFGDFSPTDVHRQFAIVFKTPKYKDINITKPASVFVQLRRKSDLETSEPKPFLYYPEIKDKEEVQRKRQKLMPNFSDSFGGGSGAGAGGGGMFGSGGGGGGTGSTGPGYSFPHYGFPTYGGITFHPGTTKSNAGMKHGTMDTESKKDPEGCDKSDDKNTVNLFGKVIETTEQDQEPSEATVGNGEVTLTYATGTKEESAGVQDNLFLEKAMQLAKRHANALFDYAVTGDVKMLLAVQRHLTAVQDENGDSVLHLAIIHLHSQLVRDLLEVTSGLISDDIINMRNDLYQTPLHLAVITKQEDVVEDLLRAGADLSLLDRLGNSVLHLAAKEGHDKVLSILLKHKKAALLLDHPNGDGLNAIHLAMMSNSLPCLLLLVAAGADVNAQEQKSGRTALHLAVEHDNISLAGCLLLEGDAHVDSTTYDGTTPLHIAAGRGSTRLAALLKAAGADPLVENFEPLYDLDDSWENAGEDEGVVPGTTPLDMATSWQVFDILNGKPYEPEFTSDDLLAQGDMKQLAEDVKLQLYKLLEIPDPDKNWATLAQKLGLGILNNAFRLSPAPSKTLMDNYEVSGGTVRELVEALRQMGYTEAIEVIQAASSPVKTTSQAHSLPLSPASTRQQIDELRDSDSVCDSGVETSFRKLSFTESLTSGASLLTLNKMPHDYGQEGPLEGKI
T1 sequence (Q00653 whole entry, looked up): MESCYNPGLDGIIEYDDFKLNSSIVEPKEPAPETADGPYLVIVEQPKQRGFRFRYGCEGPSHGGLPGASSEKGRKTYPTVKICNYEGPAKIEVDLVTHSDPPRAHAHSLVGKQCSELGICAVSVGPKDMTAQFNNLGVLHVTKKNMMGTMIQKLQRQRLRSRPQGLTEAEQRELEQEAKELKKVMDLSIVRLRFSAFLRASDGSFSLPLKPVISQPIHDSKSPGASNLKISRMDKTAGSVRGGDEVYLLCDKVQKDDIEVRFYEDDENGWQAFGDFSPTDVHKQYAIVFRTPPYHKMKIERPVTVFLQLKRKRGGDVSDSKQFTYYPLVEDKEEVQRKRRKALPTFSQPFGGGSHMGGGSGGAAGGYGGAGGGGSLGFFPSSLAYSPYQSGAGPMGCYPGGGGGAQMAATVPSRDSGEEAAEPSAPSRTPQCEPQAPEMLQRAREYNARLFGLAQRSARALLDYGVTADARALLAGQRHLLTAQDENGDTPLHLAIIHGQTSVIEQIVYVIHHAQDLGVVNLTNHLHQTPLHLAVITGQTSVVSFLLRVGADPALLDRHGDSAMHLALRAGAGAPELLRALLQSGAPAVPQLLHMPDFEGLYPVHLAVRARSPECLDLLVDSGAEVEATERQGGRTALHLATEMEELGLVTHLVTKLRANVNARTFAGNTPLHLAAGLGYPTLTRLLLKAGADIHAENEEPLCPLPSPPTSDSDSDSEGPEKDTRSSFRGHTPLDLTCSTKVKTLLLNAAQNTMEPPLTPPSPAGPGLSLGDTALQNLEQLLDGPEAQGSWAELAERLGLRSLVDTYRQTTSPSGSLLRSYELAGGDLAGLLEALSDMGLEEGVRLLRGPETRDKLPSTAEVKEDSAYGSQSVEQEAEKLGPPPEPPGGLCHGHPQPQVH
T1 sequence (Q04206 whole entry, looked up): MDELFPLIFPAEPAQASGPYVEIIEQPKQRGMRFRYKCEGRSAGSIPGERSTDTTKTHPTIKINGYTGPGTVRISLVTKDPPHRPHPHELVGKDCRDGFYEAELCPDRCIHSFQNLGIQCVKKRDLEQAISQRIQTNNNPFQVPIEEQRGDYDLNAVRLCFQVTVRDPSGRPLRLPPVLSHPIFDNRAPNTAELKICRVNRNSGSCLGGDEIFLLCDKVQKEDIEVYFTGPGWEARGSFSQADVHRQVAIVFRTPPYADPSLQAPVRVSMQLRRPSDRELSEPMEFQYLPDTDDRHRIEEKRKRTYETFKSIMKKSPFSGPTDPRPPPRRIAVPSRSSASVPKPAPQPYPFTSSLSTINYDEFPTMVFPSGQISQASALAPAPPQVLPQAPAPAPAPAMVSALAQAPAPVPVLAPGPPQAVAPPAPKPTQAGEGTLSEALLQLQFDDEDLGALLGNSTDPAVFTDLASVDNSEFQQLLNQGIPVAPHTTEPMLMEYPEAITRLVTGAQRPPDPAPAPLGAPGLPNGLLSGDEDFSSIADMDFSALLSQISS

HCT-116 [12] = assay: Induction of cell cycle arrest in human HCT-116 cells assessed as accumulation of cells at G2/M phase at 5 uM by RNase/PI staining based flow cytometry analysis (reference value: 23.15 %); type: functional
Mus musculus = assay: Anti-inflammatory activity in AOM/DSS-induced BALB/c mouse model inflammatory bowel disease assessed as reduction in transformation into adenocarcinoma at 10 mg/kg, ip pretreated with AOM for 7 days further replaced with DSS for 7 days and repeated for 2 times followed by every 2 days compound treatment for […] starting from day 50 by H and E staining based analysis; type: functional, organism-based; details: time 21.0 day
Cell membrane = assay: Disruption of mitochondrial membrane potential in human HCT-116 cells at upto 10 uM measured after 24 hrs by JC-1 staining based fluorescence microscopy; type: subcellular
HT-29 [13] = assay: Induction of apoptosis in human HT-29 cells assessed as late apoptotic cells at 5 uM incubated for 24 hrs by Annexin V-FITC/PI staining based flow cytometric analysis (reference value: 1.56 %); type: functional
HCT-116 [14] = assay: Induction of cell cycle arrest in human HCT-116 cells assessed as accumulation of cells at G2/M phase at 10 uM by RNase/PI staining based flow cytometry analysis (reference value: 23.15 %); type: functional
HT-29 [15] = assay: Induction of apoptosis in human HT-29 cells assessed as late apoptotic cells at 5 uM preincubated with Z-VAD-FMK for 1 hr followed by compound addition and measured after 24 hrs by Annexin V-FITC/PI staining based flow cytometric analysis (reference value: 7.01 %); type: functional
[16] = molecular target: T1, Nuclear factor NF-kappa-B complex (Homo sapiens); assay: Inhibition of TNF-alpha induced NFkappaB activation in human HT-29 cells assessed as inhibition of IL-8 production at 2 uM pretreated for 24 hrs followed by TNFalpha stimulation for 4 hrs by ELISA; type: cell-based; details: time 28.0 hrs
HT-29 [17] = assay: Induction of apoptosis in human HT-29 cells assessed as viable cells at 0.5 uM incubated for 24 hrs by Annexin V-FITC/PI staining based flow cytometric analysis (reference value: 93 %); type: functional; details: read-out: Activity
HCT-116 [18] = assay: Induction of apoptosis in human HCT-116 cells assessed as early apoptotic cells at 5 uM incubated for 24 hrs by Annexin V-FITC/PI staining based flow cytometric analysis (reference value: 7.22 %); type: functional
HCT-116 [19] = assay: Induction of cell cycle arrest in human HCT-116 cells assessed as decrease in Cdc25c protein expression upto 10 uM incubated for 24 hrs by Western blot analysis; type: functional, cell-based
[20] = Toxicity in athymic nude BALB/c mouse xenografted with human HCT-116 cells assessed as pathological changes in heart at 5 to 15 mg/kg, ip administered every other day and measured after 14 days by hematoxylin and eosin staining-based microscopic analysis; type: organism-based; details: in vivo, 336 h, dose 5-15 mg/kg, time 14 day
[21] = Cmax in Sprague-Dawley rat at 10 mg/kg, ip measured for 240 mins by HPLC-MS/MS analysis; type: ADME, organism-based; set-up: time 240 min, dose 10 mg/kg, route ip; details: in vivo
HCT-116 [22] = assay: Antitumor activity against human HCT-116 cells xenografted in athymic nude BALB/c mouse assessed as induction of autophagy by measuring reduction in p62 expression in tumor at 15 mg/kg, ip administered every other day and measured after 14 days by immunohistochemistry analysis; type: functional, organism-based; details: time 14.0 day
HCT-116 [23] = assay: Induction of autophagic flux in human HCT-116 cells assessed as increase in LC3 protein expression preincubated with 3-methyladenine for 1 hr followed by compound addition and measured after 24 hrs by Western blot analysis; type: functional, cell-based
[24] = molecular target: T1, Nuclear factor NF-kappa-B complex (Homo sapiens); assay: Inhibition of TNF-alpha induced NFkappaB activation in human HT-29 cells assessed as inhibition of IkappaBalpha phosphorylation at 1 to 10 uM pretreated for 24 hrs followed by TNFalpha stimulation for 10 mins by Western blot analysis; type: cell-based; details: dose 1-10 µM, time 1450.0 min
HCT-116 [25] = assay: Induction of cell cycle arrest in human HCT-116 cells assessed as accumulation of cells at G0/G1 phase at 1 uM by RNase/PI staining based flow cytometry analysis (reference value: 33.08 %); type: functional
[26] = molecular target: T1, Nuclear factor NF-kappa-B complex (Homo sapiens); assay: Inhibition of TNF-alpha induced NFkappaB activation in human HCT-116 cells assessed as inhibition of IkappaBalpha phosphorylation at 1 to 10 uM pretreated for 24 hrs followed by TNFalpha stimulation for 10 mins by Western blot analysis; type: cell-based; details: dose 1-10 µM, time 1450.0 min
HCT-116 [27] = assay: Induction of apoptosis in human HCT-116 cells assessed as viable cells at 5 uM incubated for 24 hrs by Annexin V-FITC/PI staining based flow cytometric analysis (reference value: 74.3 %); type: functional; details: read-out: Activity
[28] = Toxicity in athymic nude BALB/c mouse xenografted with human HCT-116 cells assessed as pathological changes in kidney at 5 to 15 mg/kg, ip administered every other day and measured after 14 days by hematoxylin and eosin staining-based microscopic analysis; type: organism-based; details: in vivo, 336 h, dose 5-15 mg/kg, time 14 day

C[C@@H]1CC[C@H]2[C@H](C(=O)c3c(O)c([C@@]4(O)CC[C@@H](O)[C@H]5O[C@H]54)cn(O)c3=O)[C@H](C)C=C[C@@H]2C1
CL/F [1]: 27 mL/min/kg
Activity (HT-29 [2]): Active
Activity (HT-29 [3]): Active
Activity (HT-29 [4]): 47.4%
Activity (HCT-116 [5]): 18.6%
Activity [6]: Non-Toxic
clearance [7]: 4 mL/min/kg
Activity (HT-29 [8]): 67.37%
Activity [9]: Non-Toxic
Activity (HCT-116 [10]): Active
inhibition [11]: Active
Activity (HCT-116 [12]): 15.66%
Activity (Mus musculus): Active
Activity (Cell membrane): Active
Activity (HT-29 [13]): 4.04%
Activity (HCT-116 [14]): 14.17%
Activity (HT-29 [15]): 17.2%
inhibition [16]: Active
viability at 0.5 µM (HT-29 [17]): 55.5%
Activity (HCT-116 [18]): 16.2%
Activity (HCT-116 [19]): Active
Activity [20]: Non-Toxic
Cmax [21]: 4590 ng/mL
Activity (HCT-116 [22]): Active
Activity (HCT-116 [23]): Active
inhibition [24]: Active
Activity (HCT-116 [25]): 36.23%
inhibition [26]: Active
viability at 5 µM (HCT-116 [27]): 15.6%
Activity [28]: Non-Toxic
